Target: NEK7 (Homo sapiens, UniProt Q8TDX7)
Assay: biochemical in vitro kinase assay (Reaction Biology), 10-dose IC50, […] ATP

Sequence of NEK7 (Q8TDX7 whole entry): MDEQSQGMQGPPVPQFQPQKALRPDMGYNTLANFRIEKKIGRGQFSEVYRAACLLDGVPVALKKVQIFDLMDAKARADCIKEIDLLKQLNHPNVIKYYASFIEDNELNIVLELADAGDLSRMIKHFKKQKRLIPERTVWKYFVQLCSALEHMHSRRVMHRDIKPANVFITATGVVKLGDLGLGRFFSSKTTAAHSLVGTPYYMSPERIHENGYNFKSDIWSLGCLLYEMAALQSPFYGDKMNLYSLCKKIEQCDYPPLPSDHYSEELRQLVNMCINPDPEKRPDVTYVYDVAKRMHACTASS

IC50: 2850 nM
SMILES: CCN1CCN(c2ccc(Nc3ncc4scc(-c5cccc(C(=O)NCCN(C)C)c5)c4n3)cc2)CC1 [SLC3037, N-(2-(Dimethylamino)ethyl)-3-(2-((4-(4-ethylpiperazin-1-yl)phenyl)amino)thieno[3,2-d]pyrimidin-7-yl)benzamide]

From publication PMC10869544 (Frontiers in Immunology, 2024)
